Data on four compounds can be found in article PMC5085131, “Cyclic AMP efflux inhibitors as potential therapeutic agents for leukemia” (Oncotarget, 2016).

Series [1] deals with U937 cells. Put plainly: MultiCyt 4-Plex apoptosis assay. It counts as cell-based, human. The settings on record: for EC50: Homo sapiens, U-937, 24 h. The procedure: Apoptosis was determined using MultiCyt® 4-Plex Apoptosis Screening Kit (IntelliCyt, cat. 90053). The kit provides four different apoptosis endpoints that include effector caspases 3 and 7 activation, phosphatidylserine surface expression, mitochondrial membrane depolarization and cell membrane integrity. […] Cell membrane damage is detected by the uptake of a proprietary DNA intercalating agent analogous to 7-aminoactinomycin D.
384-well plates (Greiner 784201), pre-loaded with 5 μL cRPMI were stamped using a pintool with 100 nl of DMSO-solubilized compounds from the 100-fold concentrated stock solution. Next, 5 μL U937 cells (2 × 10^6/ml in cRPMI) were added to wells and mixed, and plates were foil-sealed. Compounds (Table 1) were tested in dose response at final concentrations ranging from 15.2 nM to 100 μM (1% DMSO final). Vehicle (DMSO) was used as a negative control. After 24 h incubation under culture conditions, the IntelliCyt MultiCyt 4-Plex Apoptosis Screening Kit was used according to manufacturer's protocol. The data were acquired using iQue Screener Platform (IntelliCyt). Singlet cell populations were analyzed for individual measures of apoptosis, and gates were set based on control histograms.

Series [2] deals with VLA-4. Put plainly: Kinetic analysis of VLA-4 deactivation (LDV-FITC dissociation) in U937 cells with non-desensitizing FPR1 mutant. It counts as cell-based, human. The settings on record: U937 cells pre-activated through FPR1 mutant, 40 μM, 37°C. The procedure: Kinetic analysis of the binding and dissociation of the LDV-FITC probe was described previously. Briefly, flow cytometric data were acquired at 37°C while the samples were stirred continuously with a stir bar (Bel-Art Products). First, U937 cells transfected with a non-desensitizing mutant of the Formyl Peptide Receptor FPR1 [43] were analyzed for 30-120 s to establish a baseline. The FPR1 mutant triggers VLA-4 activation, which persists for hundreds of seconds, allowing for integrin deactivation to be detected. Next, the LDV-FITC was added and acquisition was re-established. […] Finally, 40 μM of ICE, forskolin (positive control) or vehicle (negative control) were added. Acquisition was re-established, and data were acquired continuously for up to 1024 s.
Therefore, the transition from low to high affinity state led to increased binding of the probe. This was detected as an increase in the median fluorescence intensity (MFI). VLA-4 deactivation led to the dissociation of the probe and decreased MFI [21].

The subject of series [3] is CREB (Ser133) / ATF-1 (Ser63) phosphorylation. Put plainly: Binding of anti-phospho-CREB/ATF-1 antibody in U937 cells (flow cytometry). To be noted: 1 hour, 20 μM. It is filed as cell-based, human. The procedure: Cells were suspended at 10^6 cells/ml in cRPMI and incubated for 1 hour at 37°C with 20 μM ICE compounds or forskolin (positive control). Negative control samples were treated with DMSO at equal volume. Cells were fixed with 20x volume of pre-warmed 1x solution BD Phosflow^TM Lyse/Fix Buffer (cat. 558049), incubated at 37°C for 10 minutes, permeabilized with BD Phosflow^TM Perm buffer II (cat. 558052), and incubated on ice for 30 minutes. Permeabilized cells were then washed and stained with BD Phosflow™ Alexa Fluor® 488 Mouse Anti-CREB (pS133) / ATF-1 (pS63) clone J151-21 (cat. 558435) according to the manufacturer's instructions.

Details of series [4]: method as in PMID 19505822. To be noted: cited from earlier work.
On the set-up of series [5]: method as in PMID 19505822. To be noted: cited from earlier work. This is another data set of the same source.
[6] abbreviates: mean of converged EC50s, read-out: Compound EC50, Means (of the apoptosis endpoints).
The mark [7] stands for this setting: n = 4, ± SEM, read-out: Compound EC50, Active Caspase 3/7 +.
The mark [8] stands for this setting: n = 4, ± SEM, read-out: Compound EC50, Annexin-V +.
[9] abbreviates: n = 4, ± SEM, read-out: Compound EC50, Cell membrane damage.
Where [10] appears, read: n = 4, ± SEM, read-out: Compound EC50, Mitochondrial depolarization.
Where [11] appears, read: even at the highest ICE concentrations.

Where two headings read alike, the source gives them in different places.

As to `O=C1C=C2C(=CCOC2O)O1` (centres unmarked) [Patulin], the EC50 was 4.95 µM in series [1] (setting [6]); 12.8 ± 0.09 µM in series [1] (setting [7]); 3.75 ± 0.63 µM in series [1] (setting [8]); 1.54 ± 0.02 µM in series [1] (setting [9]); 1.72 ± 0.94 µM in series [1] (setting [10]). Also, in series [2], the “VLA-4 deactivation (dissociation of LDV-FITC)” value (“VLA-4 deactivation” for short) is given as “exceeded the effects of the positive control, forskolin”.
In the case of `Oc1c(I)cc(Cl)c2cccnc12` [Clioquinol], the EC50 in series [1] (setting [6]) worked out at 26.7 µM; in series [1] (setting [8]) it was 51.1 ± 26.2 µM; in series [1] (setting [9]), 11.1 ± 0.48 µM; in series [1] (setting [10]), 17.9 ± 2.3 µM. Besides, in series [3], the “Binding of anti-CREB (pS133) / ATF-1 (pS63) specific antibodies” value was “comparable to the adenylate cyclase stimulator forskolin positive control”.
As for `C[C@H]1COC2=C1C(=O)C(=O)c1c2ccc2c1CCCC2(C)C` [Cryptotanshinone], the EC50 came out at 25.8 µM in series [1] (setting [6]), 30.7 ± 6.83 µM in series [1] (setting [9]) and 20.9 ± 6.96 µM in series [1] (setting [10]). In addition, the “Effect on annexin-V binding” value in series [1] (setting [11]) is on record as “very small effect”. In series [1] (setting [11]), the “Effect on caspase activation” value is on record as “very small effect”. Besides, the “VLA-4 deactivation” value in series [2] is “rapid and reversible VLA-4 deactivation”.
For `C=C1C(=O)O[C@H]2[C@H]1CC/C(C)=C/CC[C@@]1(C)O[C@@H]21` [Parthenolide], the EC50 in series [1] (setting [6]) worked out at 7.44 µM; in series [1] (setting [7]), 12.4 ± 2.51 µM; in series [1] (setting [8]), 7.55 ± 1.18 µM; in series [1] (setting [9]), 4.34 ± 0.9 µM; in series [1] (setting [10]), 5.52 ± 1.02 µM. The “Binding of anti-CREB (pS133) / ATF-1 (pS63) specific antibodies” value in series [3] is listed as “comparable to the adenylate cyclase stimulator forskolin positive control”. Further, in series [4], the bioavailability result is on record as “Poor”. Besides, the “VLA-4 deactivation” value in series [2] is on record as “exceeded the effects of the positive control, forskolin”. The water-solubility result in series [5] is on record as “Poor”.
